Assay results published in publication PMC12677653, “Inhibition of Tumor Lipogenesis and Growth by Peptide‐Based Targeting of SREBP Activation” (Advanced Science, 2025).

How the values were obtained:
SREBP2 = experiment: Immunofluorescence of SREBP2 nuclear translocation; assay type: cell-based, human; settings: Huh7 cells, peptide 15 μM, IGF1 100 ng/mL 8 h
Procedure: For endogenous SREBP1 and SREBP2 staining, the cells were washed with ice‐cold PBS and fixed with 4% paraformaldehyde in PBS at room temperature (around 20–25 °C) for 15 min. Then, the cells were treated with 0.1% Triton X‐100 for 5 min and blocked in 3% BSA for 1 h at room temperature. The cells were then incubated with primary antibody against SREBP1 (diluted 1:200) or SREBP2 (diluted 1:200) overnight at 4 °C. After incubation with fluorescent‐dye‐conjugated secondary antibody (diluted 1:1000; Thermo Fisher Scientific) in PBS containing 0.05% saponin, 5% goat serum and 0.5% BSA for 1 h at room temperature followed by DAPI (diluted 1:10 000; Thermo Fisher Scientific) staining of the cell nucleus for 10 min. Cells were examined using a laser confocal microscope (Zeiss LSM 900).
a) Following pretreatment with Insig1/2 loop 1 peptide (15 μM) and IGF1 stimulation (100 ng ml⁻¹, 8 h), Huh7 cells were subjected to immunofluorescence analysis (scale bar: 10 μm).

[1] = design: species or system ICR male mice; settings: mouse, in vivo, iv, 10 mg/kg
Procedure: Figure 2 LNPs with a 1:1 ratio of TAT to cRGD effectively accumulate in tumor tissues. a) Schematic illustration of LNP composition. b,c) Biodistribution analysis of differently sized LNPs in Huh7 tumor‐bearing BALB/c‐nude mice (n = 3). (b) In vivo fluorescence imaging at 8, 12, 24, and 48 h post‐intravenous injection (10 mg kg^−1). The arrows indicate the tumor site. (c) Ex vivo fluorescence imaging of tumors and major organs harvested 48 h post‐injection. d,e) Optimization of TAT/cRGD peptide coating ratios for tumor‐targeted LNPs (n = 3). (d) In vivo fluorescence imaging at 12, 24, and 48 h post‐injection. The arrows indicate the tumor site. (e) Ex vivo fluorescence imaging of tumors and organs at 48 h. f) Pharmacokinetic profile of LNP@Insig1/2 loop 1 peptide versus free peptide (Insig1/2 loop 1 peptide) following intravenous administration in ICR mice (n = 3, 10 mg kg^−1). Plasma concentration‐time curves were quantified, and pharmacokinetic parameters were calculated: AUC (0–t) (h·ng mL^−1) and AUC (0–∞) (h·ng mL^−1). Data are expressed as mean ± SD (n = 3). Statistical significance was determined by one‐way analysis of variance (ANOVA). * p < 0.05, ** p < 0.01, *** p < 0.001, **** p < 0.0001, ns, no significance. TEXT PRINTED IN THE PICTURE: (f) Peptide: Tlast (h): 0.500±0; T1/2 (h): 0.084±0.0143; AUC(0-t) (h*ng/mL): 326±71.8; AUC(0-∞)(h*ng/mL): 331±73.0; Cl(L/kg/min): 0.518±0.109 | (f) LNP@Insig1/2 loop1 peptide: Tlast (h): 5.00±1.155; T1/2 (h): 0.724±0.183; AUC(0-t) (h*ng/mL): 4928±1425; AUC(0-∞)(h*ng/mL): 4955±1422; Cl(L/kg/min): 0.0337±0.0191 DOUBTS OF THE COPYIST ABOUT THIS PICTURE: Peptide, T1/2 (h): 0.084±0.0143, small print, 8 or 6 and 3 or 5 not certain / Peptide, AUC(0-t): 326±71.8, small print, 6 or 8 not certain / Peptide, AUC(0-∞): 331±73.0, small print, 3 or 8 not certain / Peptide, Cl: 0.518±0.109, small print, 8 and 9 not certain / LNP@Insig1/2 loop1 peptide, T1/2 (h): 0.724±0.183, small print, 8 and 3 not certain / LNP@Insig1/2 loop1 peptide, AUC(0-t): 4928±1425, small print, 9, 8 and 5 not certain / LNP@Insig1/2 loop1 peptide, AUC(0-∞): 4955±1422, small print, 9 and 5 not certain / LNP@Insig1/2 loop1 peptide, Cl: 0.0337±0.0191, small print, 3 and 9 not certain
The pharmacokinetic assay of Insig1/2 loop 1 peptide and LNP@ Insig1/2 loop 1 peptide was performed in ICR male mice. The male mice were administered intravenously (iv) at a dose of 10 mg kg^−1. Then, blood samples were collected into tubes containing EDTA at 0.083, 0.25, 0.5, 1, 2, 4, 8, 24 h (iv) after dosing. After centrifugation at 6000 rpm for 10 min at 4 °C, the obtained plasma samples were stored at ‐20 °C. Subsequently, the plasma samples were analyzed by liquid (LC‐MS/MS) chromatography‐tandem mass spectrometry analysis.

[2] = Safety in mice: H&E staining of organs and blood examination; assay type: in vivo; settings: given iv as LNPs, 10 mg/kg
Procedure: c-k) The LNP@Insig1/2 loop 1 peptide or PBS (control) was administered intravenously to 6-week-old nude mice (n = 4 per group) at a dose of 10 mg kg^-1 body weight. (c)Mice heart, liver, spleen, lung and kidney were harvested for H&E staining (scale bar: 50 μm). Mouse blood was collected for (d) ALT, (e) AST, (f) ALB, (g) ALP, (h) BUN, (i) UA, (j) CR, (k) CK analysis. ALT, alanine aminotransferase; AST, aspartate transaminase; ALB, albumin; ALP, alkaline phosphatase; BUN, blood urea nitrogen; UA, uric acid; CR, creatinine; CK, creatine kinase. Data are expressed as mean ± SD. Comparisons between the two groups were performed using Student's t-test.

Sequence: RKKRRQRRRLYPCIDSHLGEPHKFKRE [Insig1/2 loop 1 peptide]
- IGF1-induced nuclear translocation of SREBP2 (SREBP2): inhibited
- AUC(0-t) [1]: 326 ± 71.8 ng·h/mL
- AUC(0-∞) [1]: 331 ± 73.0 ng·h/mL
- Cl [1]: 518 ± 109 mL/min/kg
- Tlast [1]: 0.500 ± 0 h
- toxicity (overall conclusion) [2]: limited toxicity
